Earlier results, collected in publication PMC4959752, “Pharmacokinetics in Wistar Rats of 5-[(4-Carboxybutanoyl)Amino]-2-Hydroxybenzoic Acid: A Novel Synthetic Derivative of 5-Aminosalicylic Acid (5-ASA) with Possible Anti-Inflammatory Activity” (PLoS ONE, 2016).

Tests used:
[1] = tested on: plasma protein; conditions: comparison value; cited from earlier work
[2] = literature value; cited from earlier work

Q: With `Nc1ccc(O)c(C(=O)O)c1` [5-ASA, 5-aminosalicylic acid] as the molecule, how does the protein binding [1] read?
A: Its protein binding is 40%.

Q: With `CC(=O)Oc1ccccc1C(=O)O` [aspirin] as the molecule, how does the plasma half-life [2] read?
A: The plasma half-life was 15 min.
